Assay results published in ChEMBL document CHEMBL3046126, “Synthesis and Herbicidal Activity of New Oxazolidinedione Derivatives” (J Pestic Sci, 1999).

How the values were obtained:
[1] = system: Elatine triandra; assay: Pre-emergence herbicidal activity against Elatine triandra assessed as phytotoxic weed control visual ratings at 1.25 kg ai/ha measured after 14 days post treatment under flooded conditions; format: functional
[2] = system: Rotala indica; assay: Pre-emergence herbicidal activity against Rotala indica assessed as phytotoxic weed control visual ratings at 1.25 kg ai/ha measured after 14 days post treatment under flooded conditions; format: functional
[3] = system: Cyperus difformis; assay: Pre-emergence herbicidal activity against Cyperus difformis assessed as phytotoxic weed control visual ratings at 1.25 kg ai/ha measured after 14 days post treatment under flooded conditions; format: functional
[4] = system: Echinochloa oryzicola; assay: Pre-emergence herbicidal activity against Echinochloa oryzicola assessed as phytotoxic weed control visual ratings at 1.25 kg ai/ha measured after 14 days post treatment under flooded conditions; format: functional
[5] = system: Oryza sativa; assay: Pre-emergence phytotoxicity against Oryza sativa cv. Koshihikari (rice) assessed as phytotoxic crop injury visual ratings at 1.25 kg ai/ha measured after 14 days post treatment under flooded conditions; format: organism-based; settings: in vivo, other, 336 h
[6] = system: Schoenoplectiella juncoides; assay: Pre-emergence herbicidal activity against Schoenoplectiella juncoides assessed as phytotoxic weed control visual ratings at 1.25 kg ai/ha measured after 14 days post treatment under flooded conditions; format: functional
[7] = system: Pontederia vaginalis; assay: Pre-emergence herbicidal activity against Monochoria vaginalis assessed as phytotoxic weed control visual ratings at 1.25 kg ai/ha measured after 14 days post treatment under flooded conditions; format: functional
[8] = system: Lindernia procumbens; assay: Pre-emergence herbicidal activity against Lindernia procumbens assessed as phytotoxic weed control visual ratings at 1.25 kg ai/ha measured after 14 days post treatment under flooded conditions; format: functional
[9] = system: Zea mays; assay: Pre-emergence phytotoxicity against Zea mays (maize) assessed as phytotoxic crop injury visual ratings at 500 g ai/ha measured after 14 days post treatment under upland field conditions; format: organism-based; settings: in vivo, other, 336 h
[10] = system: Chenopodium album; assay: Pre-emergence herbicidal activity against Chenopodium album assessed as phytotoxic weed control visual ratings at 500 g ai/ha measured after 14 days post treatment under upland field conditions; format: functional
[11] = system: Amaranthus viridis; assay: Pre-emergence herbicidal activity against Amaranthus viridis assessed as phytotoxic weed control visual ratings at 500 g ai/ha measured after 14 days post treatment under upland field conditions; format: functional
[12] = system: Digitaria ciliaris; assay: Pre-emergence herbicidal activity against Digitaria ciliaris assessed as phytotoxic weed control visual ratings at 500 g ai/ha measured after 14 days post treatment under upland field conditions; format: functional
[13] = system: Echinochloa crus-galli; assay: Pre-emergence herbicidal activity against Echinochloa crus-galli (barnyard grass) assessed as phytotoxic weed control visual ratings at 500 g ai/ha measured after 14 days post treatment under upland field conditions; format: functional
[14] = system: Schoenoplectiella juncoides; assay: Pre-emergence herbicidal activity against Schoenoplectiella juncoides assessed as phytotoxic weed control visual ratings at 25 g ai/ha measured after 14 days post treatment under flooded conditions; format: functional
[15] = system: Oryza sativa; assay: Pre-emergence phytotoxicity against Oryza sativa cv. Koshihikari (rice) assessed as phytotoxic crop injury visual ratings at 25 g ai/ha measured after 14 days post treatment under flooded conditions; format: organism-based; settings: in vivo, other, 336 h
[16] = system: Pontederia vaginalis; assay: Pre-emergence herbicidal activity against Monochoria vaginalis assessed as phytotoxic weed control visual ratings at 25 g ai/ha measured after 14 days post treatment under flooded conditions; format: functional
[17] = system: Lindernia procumbens; assay: Pre-emergence herbicidal activity against Lindernia procumbens assessed as phytotoxic weed control visual ratings at 25 g ai/ha measured after 14 days post treatment under flooded conditions; format: functional
[18] = system: Cyperus difformis; assay: Pre-emergence herbicidal activity against Cyperus difformis assessed as phytotoxic weed control visual ratings at 25 g ai/ha measured after 14 days post treatment under flooded conditions; format: functional
[19] = system: Echinochloa oryzicola; assay: Pre-emergence herbicidal activity against Echinochloa oryzicola assessed as phytotoxic weed control visual ratings at 25 g ai/ha measured after 14 days post treatment under flooded conditions; format: functional
[20] = system: Rotala indica; assay: Pre-emergence herbicidal activity against Rotala indica assessed as phytotoxic weed control visual ratings at 25 g ai/ha measured after 14 days post treatment under flooded conditions; format: functional
[21] = system: Elatine triandra; assay: Pre-emergence herbicidal activity against Elatine triandra assessed as phytotoxic weed control visual ratings at 25 g ai/ha measured after 14 days post treatment under flooded conditions; format: functional
[22] = system: Elatine triandra; assay: Pre-emergence herbicidal activity against Elatine triandra assessed as phytotoxic weed control visual ratings at 2.5 kg ai/ha measured after 14 days post treatment under flooded conditions; format: functional
[23] = system: Rotala indica; assay: Pre-emergence herbicidal activity against Rotala indica assessed as phytotoxic weed control visual ratings at 2.5 kg ai/ha measured after 14 days post treatment under flooded conditions; format: functional
[24] = system: Schoenoplectiella juncoides; assay: Pre-emergence herbicidal activity against Schoenoplectiella juncoides assessed as phytotoxic weed control visual ratings at 2.5 kg ai/ha measured after 14 days post treatment under flooded conditions; format: functional
[25] = system: Pontederia vaginalis; assay: Pre-emergence herbicidal activity against Monochoria vaginalis assessed as phytotoxic weed control visual ratings at 2.5 kg ai/ha measured after 14 days post treatment under flooded conditions; format: functional
[26] = system: Oryza sativa; assay: Pre-emergence phytotoxicity against Oryza sativa cv. Koshihikari (rice) assessed as phytotoxic crop injury visual ratings at 2.5 kg ai/ha measured after 14 days post treatment under flooded conditions; format: organism-based; settings: in vivo, other, 336 h
[27] = system: Lindernia procumbens; assay: Pre-emergence herbicidal activity against Lindernia procumbens assessed as phytotoxic weed control visual ratings at 2.5 kg ai/ha measured after 14 days post treatment under flooded conditions; format: functional
[28] = system: Cyperus difformis; assay: Pre-emergence herbicidal activity against Cyperus difformis assessed as phytotoxic weed control visual ratings at 2.5 kg ai/ha measured after 14 days post treatment under flooded conditions; format: functional
[29] = system: Echinochloa oryzicola; assay: Pre-emergence herbicidal activity against Echinochloa oryzicola assessed as phytotoxic weed control visual ratings at 2.5 kg ai/ha measured after 14 days post treatment under flooded conditions; format: functional

| SMILES | Phytotoxicity [1] | Phytotoxicity [2] | Phytotoxicity [3] | Phytotoxicity [4] | Phytotoxicity [5] | Phytotoxicity [6] | Phytotoxicity [7] | Phytotoxicity [8] | Phytotoxicity [9] | Phytotoxicity [10] | Phytotoxicity [11] | Phytotoxicity [12] | Phytotoxicity [13] | Phytotoxicity [14] | Phytotoxicity [15] | Phytotoxicity [16] | Phytotoxicity [17] | Phytotoxicity [18] | Phytotoxicity [19] | Phytotoxicity [20] | further results |
| --- | --- | --- | --- | --- | --- | --- | --- | --- | --- | --- | --- | --- | --- | --- | --- | --- | --- | --- | --- | --- | --- |
| CCCC/C(C)=C1/OC(=O)N(c2ccc(Cl)cc2)C1=O | 100% | 100% | 100% | 40% | 10% | 100% | 100% | 100% | – | – | – | – | – | – | – | – | – | – | – | – | – |
| CCOc1cc(N2C(=O)OC(=C(C)C)C2=O)c(F)cc1Cl | – | – | – | – | – | – | – | – | 10% | 90% | 100% | 90% | 50% | 60% | 10% | 100% | 100% | 100% | 30% | 100% | Phytotoxicity [21]: 100% |
| CC(C)=C1OC(=O)N(c2ccc(F)cc2)C1=O | 40% | 40% | 100% | 10% | 0% | 0% | 40% | 40% | – | – | – | – | – | – | – | – | – | – | – | – | – |
| CC(C)=C1OC(=O)N(c2cc(O)c(Cl)cc2F)C1=O | – | – | – | – | – | – | – | – | 0% | 10% | 0% | 0% | 0% | 0% | 0% | 10% | 10% | 30% | 0% | 10% | Phytotoxicity [21]: 10% |
| CC(C)=C1OC(=O)N(c2cccc(Cl)c2)C1=O | – | – | – | – | – | – | – | – | – | – | – | – | – | – | – | – | – | – | – | – | Phytotoxicity [22]: 30%; Phytotoxicity [23]: 30%; Phytotoxicity [24]: 10%; Phytotoxicity [25]: 30%; Phytotoxicity [26]: 0%; Phytotoxicity [27]: 30%; Phytotoxicity [28]: 30%; Phytotoxicity [29]: 0% |
| CC/C(C)=C1/OC(=O)N(c2ccc(Cl)cc2)C1=O | 100% | 100% | 100% | 100% | 20% | 100% | 100% | 100% | – | – | – | – | – | – | – | – | – | – | – | – | – |
| O=C1OC(=C2CCCCC2)C(=O)N1c1ccc(Cl)cc1 | 100% | 100% | 100% | 10% | 0% | 80% | 10% | 100% | – | – | – | – | – | – | – | – | – | – | – | – | – |
| COc1cc(N2C(=O)OC(=C(C)C)C2=O)c(F)cc1Cl | – | – | – | – | – | – | – | – | 30% | 90% | 80% | 90% | 60% | 10% | 0% | 80% | 100% | 100% | 30% | 100% | Phytotoxicity [21]: 100% |
| CCC(CC)Oc1cc(N2C(=O)OC(=C(C)C)C2=O)c(F)cc1Cl | – | – | – | – | – | – | – | – | 0% | 90% | 90% | 60% | 30% | 90% | 0% | 100% | 100% | 100% | 60% | 100% | Phytotoxicity [21]: 100% |
| CC(C)=C1OC(=O)N(c2c(Cl)cc(Cl)cc2Cl)C1=O | – | – | – | – | – | – | – | – | – | – | – | – | – | – | – | – | – | – | – | – | Phytotoxicity [22]: 100%; Phytotoxicity [23]: 100%; Phytotoxicity [24]: 20%; Phytotoxicity [25]: 100%; Phytotoxicity [26]: 0%; Phytotoxicity [27]: 100%; Phytotoxicity [28]: 100%; Phytotoxicity [29]: 30% |
